Measured values reported in patent US12622910B2, “Inhibitors of Bruton's tyrosine kinase and methods of their use” (Janssen Pharmaceutica NV, priority 2021, dated 2026).

How the values were obtained:
BLK = target: T1, BLK (Homo sapiens, UniProt P51451); experiment: ActivX KiNativ native kinase profiling, Ramos cell lysates; type: binding; settings: activation loop labelling
T1 construct: purchased Eurofins Scientific
Experimental: (§1) RESULTS AND DISCUSSION—Selectivity—The compound of Formula (III) was evaluated in three selectivity panels to assess the potential for off-target pharmacology (Table 8). […] The kinase off-target profile of The compound of Formula (III) was assessed in a full human wild-type panel using radiometric kinase activity assays (KinaseProfiler™ and IC50Profiler™; Eurofins Scientific) (Table 9; FIG. 23). The compound of Formula (III) inhibited 4/278 kinases >50% at 1 micromolar, identifying BTK and the three other kinases having analogous Cys residues with the potential for covalent inhibition (BMX, TEC, BLK). […]. The cellular kinase selectivity of The compound of Formula (III) was established in native Ramos B cell kinome assays (KiNativ™; ActivX) confirmed BTK as the primary target with inhibition of BLK and TEC inhibition detected (Table 10).

TEC = target: T2, TEC (Homo sapiens, UniProt P42680); experiment: as above; type: binding
T2 construct: purchased Eurofins Scientific
T2 sequence (P42680 1-631): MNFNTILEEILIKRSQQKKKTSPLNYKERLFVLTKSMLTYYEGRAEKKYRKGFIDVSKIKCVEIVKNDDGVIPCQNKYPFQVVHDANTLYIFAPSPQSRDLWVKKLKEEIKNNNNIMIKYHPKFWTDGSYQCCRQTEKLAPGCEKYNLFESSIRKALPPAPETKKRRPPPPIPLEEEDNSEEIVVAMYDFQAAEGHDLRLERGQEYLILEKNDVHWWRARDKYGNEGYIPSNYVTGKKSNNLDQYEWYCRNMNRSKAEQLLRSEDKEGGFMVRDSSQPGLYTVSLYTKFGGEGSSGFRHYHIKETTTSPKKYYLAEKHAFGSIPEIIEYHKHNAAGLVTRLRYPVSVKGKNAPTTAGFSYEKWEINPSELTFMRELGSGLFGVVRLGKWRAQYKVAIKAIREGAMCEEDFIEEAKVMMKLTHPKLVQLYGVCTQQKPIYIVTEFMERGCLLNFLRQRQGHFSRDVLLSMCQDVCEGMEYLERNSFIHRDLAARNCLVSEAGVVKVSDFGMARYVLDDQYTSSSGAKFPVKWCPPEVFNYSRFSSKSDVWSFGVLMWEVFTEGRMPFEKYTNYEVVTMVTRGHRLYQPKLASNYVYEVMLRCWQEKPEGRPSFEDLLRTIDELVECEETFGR
Experimental: as §1

[1] = Rat collagen-induced arthritis; type: in vivo, female Wistar rat; settings: female, Wistar, rat, plasma, oral, 2 mg/kg/day
Text: (§2) In vivo activity in collagen-induced arthritis—A rat CIA model in female Wistar rats was used to define the impact of the compound of Formula (III) on chronic inflammation and derive PK-PD correlations (FIG. 16). YiSaipu™ (recombinant human tumor necrosis factor-α receptor (type II): IgGI Fc (rhTNFR:Fc) fusion protein; biogeneric version of Etanercept™) was used as a comparator. […] The doses required to achieve meaningful efficacy correlated with a BTK target occupancy threshold of >75% over 24 hours based on the preceding target engagement studies.
(§3) Rat collagen-induced arthritis—An emulsion was prepared on ice from equal volumes of type II collagen (CII; Chondrex) (2 mg/mL in 100 mM acetic acid (Sinopharm Chemical Reagent Co. Ltd)) and Incomplete Freund's Adjuvant (IFA) (Sigma-Aldrich) by high speed homogenization (28,000 rpm) for 3 min (FLUKO Equipment Shanghai Co. Ltd). Eighty-two rats were used in the study. Before immunization, 6 rats were randomly selected as a naïve group. The other 76 rats were anesthetized with inhalational isoflurane, and injected intradermally at the base of the tail with 0.2 mL of the emulsion (1 mg/mL CII/IFA), 2 to 3 cm from the body on day 0 and day 7. On day 10, the 56 rats with the most developed arthritis based on paw volume measurements out of the 76 rats that were immunized were divided into 7 groups (n=8) with a stratified random block design according to average hind paw volume of each rat. Each group with similar starting paw inflammation was administered with vehicle or different doses of the compound of Formula (III) (0.3, 1, 2, 3, 10 mg/kg, PO, QD, days 10-17) or YiSaiPu (biosimilar etarnacept) (15 mg/kg, IP, QOD, days 10-16).
(§4) Hind paws volume and body weight were monitored daily for 7 consecutive days (days 10-16) after initiation of test article dosing. Left and right paw volumes in each rat were measured by a Plethysmometer (Catalog No. 7140, Ugo Basile. Italy). Blood (about 300 μL) in the groups treated with the compound of Formula (III) was collected into heparinized tubes via retro-orbital bleeding under isoflurane anesthesia on day 17-18. For groups treated with the compound of Formula (III), the composite collection time points were 0, 0.5, 1, 2, 4, 8, 12 and 24 hrs after last administration of the compound of Formula (III). After collection, blood samples were centrifuged (5,000 rpm for 10 min), plasma collected, and the concentrations of the compound of Formula (III) were determined using liquid chromatography mass spectrophotometry.

hind paw inflammation = experiment: Rat collagen-induced arthritis; type: in vivo, female Wistar rat
Text: as §2, §3, §4

T1 sequence (P51451 whole entry): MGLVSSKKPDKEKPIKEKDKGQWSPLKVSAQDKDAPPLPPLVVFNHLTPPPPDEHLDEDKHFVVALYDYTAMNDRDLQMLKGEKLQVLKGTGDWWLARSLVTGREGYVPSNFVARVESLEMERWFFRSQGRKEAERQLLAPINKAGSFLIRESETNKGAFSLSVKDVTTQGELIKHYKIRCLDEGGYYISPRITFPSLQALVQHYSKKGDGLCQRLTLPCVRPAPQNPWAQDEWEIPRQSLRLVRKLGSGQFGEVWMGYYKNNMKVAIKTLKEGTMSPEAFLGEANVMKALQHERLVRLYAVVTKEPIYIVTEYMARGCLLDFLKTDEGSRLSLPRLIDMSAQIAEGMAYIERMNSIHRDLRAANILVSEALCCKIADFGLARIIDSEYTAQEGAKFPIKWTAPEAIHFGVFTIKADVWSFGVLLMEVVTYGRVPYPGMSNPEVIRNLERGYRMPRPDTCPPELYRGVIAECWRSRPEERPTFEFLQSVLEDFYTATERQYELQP

Q: What does the source list for `C=CC(=O)N[C@H]1CCC[C@H]1NC(=O)c1sc2nccc3c2c1NC(=O)N3c1cnc(CC(C)C)cc1C` (atropisomer, axis not shown) [compound of Formula (III), N-((1R,2S)-2-Acrylamidocyclopentyl)-5-(S)-(6-isobutyl-4-methylpyridin-3-yl)-4-oxo-4,5-dihydro-3H-1-thia-3,5,8-triazaacenaphthylene-2-carboxamide]?
A: inhibition at 1 µM (BLK): 61.9%; inhibition at 1 µM (TEC): 77.6%; AUC(0-t) ([1]; read-out: AUClast at efficacious dose): 324 ng·h/mL; Cmax ([1]; read-out: Cmax at efficacious dose): 46.6 ng/mL; effect on hind paw inflammation (hind paw inflammation; 0.3, 1, 2, 3, 10 mg/kg/day PO QD): attenuated hind paw inflammation in a dose-dependent manner; dose with effect on inflammation equivalent to anti-TNFα comparator (hind paw inflammation; PO QD): ≥ 2 mg/kg/day
